Here are results for seven compounds from patent US9598463B2, “Mucin hypersecretion inhibitors and methods of use” (BIOMARCK PHARMACEUTICALS, LTD., priority 2005, dated 2017).

A short description of series [1]: Qualitative solubility of test peptides in 0.5 N saline. Type of series: physicochemical. The conditions noted are these: pH 6.5, 20° C. (table title). Here is the method: Various test peptides (1 to 5 mg each) were weighed out accurately in individual 2 mL screw cap glass vials and aliquots of 25 μL of 0.5 N saline, pH 6.5, were added at 25° C. and ambient pressure. The solubility was evaluated visually. If the test peptide dissolves completely with the first aliquot of saline, its solubility was calculated and designated as more than the calculated amount. […] Similarly, if 1.7 mg of a test peptide fails to dissolve in 1.7 mL of 0.5 N saline, its solubility is stated as <1.0 mg/mL.

Series [2] is described as follows: Stability of test peptides in human CF mucus (LC/MS/MS, first order half-life). The series is classed as in vitro ADME. Here is the method: (§1) Various test peptides in human plasma, human BALF, and CF patient mucus were analyzed to determine the susceptability of the test peptide to proteolysis in the biological fluids. […] The samples were analyzed either on the same day as received or stored at −20° C. and analyzed within the following two days.
The frozen mucus (sputum) from a CF patient was thawed and mixed with 2 volumes of 75 mM sodium acetate buffer, pH 7 with the help of a glass tissue grinder, centrifuged at 10,000×g for 10 min at 4-8° C. The pellet was re-suspended in 1 volume of the acetate buffer and centrifuged. The two supernatants were combined and used as follows. The supernatant (450 μL) was spiked with 50 μL, of 0.5 mg/mL solution of the peptide in 75 mM sodium acetate buffer at pH 7.0 and processed and analyzed as described above.
(§2) All samples were analyzed using LC/MS/MS (MDS/SCIEX, API 4000 Model). Chromatography was performed using a Phenomenex Luna C18 column, while mass spectrometry was performed using positive ion electrospray ionization.
(§3) Calibration standards were analyzed by LCMS at concentrations of 0.100 μg/mL, 1.00 μg/mL, 10.0 μg/mL, and 100 μg/mL for each peptide, with the exception of the calibration standards for peptides myr-PEPTIDE 106, PEPTIDE 106, PEPTIDE 106-NH2, PEPTIDE 106, and cyclic peptide, cyc-PEPTIDE 106, in human mucus, which were analyzed at concentrations of 0.100 μg/mL, 1.00 μg/mL, 10.0 μg/mL, and 75 μg/mL. Standards were prepared in 1% human BALF, plasma, or mucus in 50/50 water/acetonitrile mixture containing 0.2% formic acid. The instrument response values for each set of standards were fit using a 1/(concentration)^2 linear least-squares line. Sample concentrations were calculated using the slope and intercept of this line. Concentrations outside of the calibration range were determined by extrapolating the calibration curve.
(§4) Watson fits the log transformed data with a least-squares line to determine parameters such as Cmax (maximum concentration), intercept, rate constant, slope, and T1/2 (half-life). The resulting kinetic parameters were based on the linear fit, not the actual concentration values.
(§5) Time-zero calibration standards in solution were not included as part of the kinetic profiles.

Series [3] in a line: Stability of test peptides in human plasma (LC/MS/MS, first order half-life). Type of series: in vitro ADME. The protocol:
as §1
Fresh human blood samples were collected in citrate buffered vacuutrainers (in absence of EDTA or heparin). Red blood cells (RBC) were removed by centrifugation of the blood at 4000×g for 10 min at 4° C. Plasma aliquots (0.9 mL) were then spiked with 0.1 mL of 0.5 mg/mL solution of the test peptide in 75 mM sodium acetate buffer at pH 7.0 and incubated in a water bath maintained at 37° C. Duplicate aliquots of 10 μL, were withdrawn at 5, 15, 30, 60, and 180 minutes intervals and immediately “quenched” with 990 μL of a solution consisting of 50% acetonitrile+50% water containing 0.2% formic acid. The samples were then subjected to liquid chromatography-mass spectrometry (LCMS) analysis.
as §2
as §3, with “curve. […]” for “curve.”
For the analysis of peptide concentration in plasma, duplicate calibration standards were analyzed at a concentration of 25 μg/mL and 50 μg/mL for each peptide. The instrument response values for each set of standards were fit through an intercept of 0 using an unweighted, linear least-squares line. Sample concentrations were calculated using the slope and intercept of this line. Concentrations outside of the calibration range were determined by extrapolating the calibration curve.
as §4, §5

Series [4] deals with methacholine-induced mucin hypersecretion. The experiment in a line: Methacholine-induced mucin hypersecretion in ovalbumin-sensitized mouse model of asthma, BAL mucin ELISA (Balb/C mice). The series is classed as in vivo. The settings on record: for Mucin Secretion % of control: Table IV; for Mucin Secretion % control: Table II, peptides at 100 μM, 50 μL intratracheal 15 min before methacholine. The source says: Experiments were designed to test whether or not the MANS peptide and other test peptides related thereto inhibit hypersecretion of mucin in murine airway in vivo. The ovalbumin-sensitized mouse model of allergic inflammation and asthma used in these studies was as described by Singer et al. (2004), supra. As a negative control, a control peptide containing an N-terminal myristoyl group and the same amino acids as MANS peptide but arranged in random order (i.e., the random N-terminal sequence, RNS, myristoyl-peptide 232) was tested alongside the proposed active peptides. BP2 mice, aged 6-8 wks, were immunized subcutaneously twice at weekly intervals with 1 μg of ovalbumin. After 14 days of sensitization, the animals were exposed to aerosolized ovalbumin, which causes a pronounced goblet cell hyperplasia after 72 hours. At the 72 hr time point, the secretagogue, methacholine ([…]) was delivered using a Buxco system nebulizer providing a fine aerosol for 90 seconds. Fifteen min prior to the secretagogue challenge, 50 μL of the test peptide, at 3 different concentrations (10 μM, 100 μM, or 140 μM), was administered by intratracheal route. The RNS peptide was tested at the highest dose level only (50 μL of 140 μM solution). […] Each experiment was carried out in 6 mice per point, and each set of experiments was repeated 3 times. To test strain-to-strain variations, the above experiment was repeated in Balb/C mice under similar protocol. Both stimulated and unstimulated mucin secretion, in mice treated with […] sodium acetate (data not shown), were identical to saline control. Following the methacholine challenge, the animals were sacrificed and bronchoalveolar lavage (BAL) performed on 6 animals per group for analysis of secreted mucin.
Mice were sacrificed by cervical dislocation, followed by rapid exposure of the trachea and insertion of a cannula through a small incision. Bronchoalveolar lavage (BAL) fluid was collected with 0.5 ml followed by 3×1 ml PBS containing PMSF (5 mM), EDTA (5 mM), and DTT (5 mM). BAL fluid was separated into cell-free and cell fractions via brief centrifugation prior to any analyses being performed. The cell-free supernatants were analyzed for the presence of mucin via an ELISA method using anti-mucin antibodies shown to react with mouse mucin. Specifically, a mouse anti-MUC5AC antibody that recognizes the carbohydrate portion of secreted mucin was used in these assays. Data generated from each BAL sample were normalized to total protein as determined by Bradford assay. Mucin content was expressed as the value obtained with the anti-mucin antibody minus that obtained with the non-immune control antibody. All ELISA data were statistically examined using a one-way ANOVA.
(In general: An ELISA detects its analyte on a solid surface through an enzyme-linked reagent.)

Series [5] in a line: Stability of test peptides in human BALF (LC/MS/MS, first order half-life). Type of series: in vitro ADME. Here is the method:
as §1
Samples of BALF collected from COPD patients were obtained and frozen. The BALF samples were thawed, mixed together and centrifuged at 10,000×g for 10 min at 4-8° C. The supernatant (0.9 mL) was spiked with 0.1 mL of 0.5 mg/mL solution of the peptide in 75 mM sodium acetate buffer at pH 7.0 and processed and analyzed as described above.
as §2, §3
Duplicate calibration standards were analyzed at a concentration of 50 μg/mL for each peptide. The instrument response values for each set of standards were fit through an intercept of 0 using an unweighted, linear least-squares line. Sample concentrations were calculated using the slope and intercept of this line.
For the analysis of peptide concentration in BALF samples, one 50 μg/mL calibration standard prepared in a mixture of BALF, water, acetonitrile, and formic acid was analyzed with each sample set.
as §4, §5

Where [6] appears, read: human plasma, 37° C., 2nd experiment, read-out: Plasma t1/2 (2nd exp.) (converted).
Setting [7] is: human plasma, 37° C., 1st experiment, read-out: Plasma t1/2 (1st exp.) (converted).
Where [8] appears, read: human BALF from COPD patients, 1st experiment, read-out: BALF t1/2 (1st exp.) (converted).

Marks after values point to notes of the source that are not given here. Where a SMILES comes first, the peptide text is derived from it. The star is where a group is joined. Myristoyl = CCCCCCCCCCCCCC(=O)*

The solubility is the concentration that dissolves in the medium under given conditions. Low values mean a poorly soluble substance, high ones a readily soluble substance. In the case of `C[C@@H]1NC(=O)CNC(=O)[C@H](CCCCN)NC(=O)[C@H](C)NC(=O)[C@H](C)NC(=O)[C@H]([C@@H](C)O)NC(=O)[C@H](CCCCN)NC(=O)[C@H](CO)NC(=O)[C@H](Cc2ccccc2)NC(=O)[C@H](CCC(N)=O)NC1=O` [cyclic-peptide 106] (cyclo(GAQFSKTAAK)), the solubility in series [1] was greater than 150 mg/mL. Further, the half-life in series [2] (human CF mucus, 1st experiment, read-out: Mucus t1/2 (1st exp.) (converted)) was 1.1 h; in series [2] (human CF mucus, 2nd experiment, read-out: Mucus t1/2 (2nd exp.) (converted)), 2 h; in series [3] (setting [6]), 1.04 h.

Ac-GAQFSKTAAKGE-NH2 [Ac-peptide 79-NH2]: the solubility in series [1] was greater than 60 mg/mL. In series [3] (setting [7]), the half-life is 2.64 h.

Consider “H-GAQASKTAAKGE-OH [peptide 237, GAQASKTAAKGE]”, for which the results for the “Mucin Secretion % of control” value in series [4] (peptide 10 μM) and in series [4] (peptide 100 μM) were 67*+ % of control and 8** % of control, respectively. The same compound gave a solubility in series [1] greater than 80 mg/mL. For the same compound, the half-life in series [3] (setting [7]) was 0.49 h.

Take H-GAQFSKTAAK-NH2 [peptide 106-NH2]: in series [1], the solubility was greater than 100 mg/mL. Moreover, the half-life was 0.08 h in series [2] (cerebrospinal or other body fluid, pH 7, human CF mucus, 1st experiment, read-out: Mucus t1/2 (1st exp.) (converted)); 0.13 h in series [2] (cerebrospinal or other body fluid, pH 7, human CF mucus, 2nd experiment, read-out: Mucus t1/2 (2nd exp.) (converted)); 4 h in series [5] (setting [8]); 0.3 h in series [3] (setting [7]); 0.13 h in series [3] (setting [6]).

As to `CCCCCCCCCCCCCC(=O)NCC(=O)N[C@@H](C)C(=O)N[C@@H](CCC(N)=O)C(=O)N[C@@H](C)C(=O)N[C@@H](CO)C(=O)N[C@@H](CCCCN)C(=O)N[C@H](C(=O)N[C@@H](C)C(=O)N[C@@H](C)C(=O)N[C@@H](CCCCN)C(=O)O)[C@@H](C)O` [myr-peptide 236] (Myristoyl-GAQASKTAAK-OH), the solubility in series [1] was less than 10 mg/mL. Moreover, the half-life is 3.55 h in series [5] (cerebrospinal or other body fluid, human BALF from COPD patients, 1st experiment, read-out: BALF t1/2 (1st exp.) (converted)); 2.94 h in series [5] (cerebrospinal or other body fluid, human BALF from COPD patients, 2nd experiment, read-out: BALF t1/2 (2nd exp.) (converted)); 0.72 h in series [3] (setting [7]).

With `CCCCCCCCCCCCCC(=O)NCC(=O)N[C@@H](C)C(=O)N[C@@H](CCC(N)=O)C(=O)N[C@@H](Cc1ccccc1)C(=O)N[C@@H](CO)C(=O)N[C@@H](CCCCN)C(=O)N[C@H](C(=O)N[C@@H](CCCCN)C(=O)N[C@@H](C)C(=O)N[C@@H](CCCCN)C(=O)NCC(=O)N[C@@H](CCC(=O)O)C(N)=O)[C@@H](C)O` [myr-peptide 234-NH2] (Myristoyl-GAQFSKTKAKGE-NH2), in series [4], the “Mucin Secretion % control” value worked out at 27.8 % control. For the same compound, in series [1], the solubility is less than 2 mg/mL. Further, the half-life in series [5] (setting [8]) was 1.7 h; in series [3] (setting [7]) it was 3.82 h.

On to `CCCCCCCCCCCCCC(=O)NCC(=O)N[C@@H](C)C(=O)N[C@@H](CCC(N)=O)C(=O)N[C@@H](Cc1ccccc1)C(=O)N[C@@H](CO)C(=O)N[C@@H](CCCCN)C(=O)N[C@H](C(=O)N[C@@H](C)C(=O)N[C@@H](C)C(=O)N[C@@H](CCCCN)C(=O)O)[C@@H](C)O` [myr-peptide 106] (Myristoyl-GAQFSKTAAK-OH), for which, in series [4], the “Mucin Secretion % control” value is listed as 33.6 % control. Also, the “Mucin Secretion % of control” value is on record as 74*+ % of control in series [4] (peptide 10 μM) and 24** % of control in series [4] (peptide 100 μM). In series [1], this compound showed a solubility greater than 10 mg/mL. Also, the half-life in series [2] (cerebrospinal or other body fluid, pH 7, Mucus t1/2 (1st exp.)) was 9.53 h; in series [2] (cerebrospinal or other body fluid, pH 7, Mucus t1/2 (2nd exp.)) it was 3 h; in series [5] it was 1.03 h; in series [3] (Plasma t1/2 (1st exp.)) it was 1.23 h; in series [3] (Plasma t1/2 (2nd exp.)), 0.9 h.
